Results reported in article PMC9860728, “Identification of New N-methyl-piperazine Chalcones as Dual MAO-B/AChE Inhibitors” (Pharmaceuticals, 2023).

What was measured:
MAO-B [1] = target: T1, MAO-B (Homo sapiens, UniProt P27338); assay: Reversibility test for MAO-B using dialysis method; format: biochemical; conditions: for Residual activity of MAO-B after dialysis: after dialysis for 6 h, inhibitor at ~2 × IC50
T1 construct: purchased Sigma Aldrich
T1 sequence (P27338 1-520): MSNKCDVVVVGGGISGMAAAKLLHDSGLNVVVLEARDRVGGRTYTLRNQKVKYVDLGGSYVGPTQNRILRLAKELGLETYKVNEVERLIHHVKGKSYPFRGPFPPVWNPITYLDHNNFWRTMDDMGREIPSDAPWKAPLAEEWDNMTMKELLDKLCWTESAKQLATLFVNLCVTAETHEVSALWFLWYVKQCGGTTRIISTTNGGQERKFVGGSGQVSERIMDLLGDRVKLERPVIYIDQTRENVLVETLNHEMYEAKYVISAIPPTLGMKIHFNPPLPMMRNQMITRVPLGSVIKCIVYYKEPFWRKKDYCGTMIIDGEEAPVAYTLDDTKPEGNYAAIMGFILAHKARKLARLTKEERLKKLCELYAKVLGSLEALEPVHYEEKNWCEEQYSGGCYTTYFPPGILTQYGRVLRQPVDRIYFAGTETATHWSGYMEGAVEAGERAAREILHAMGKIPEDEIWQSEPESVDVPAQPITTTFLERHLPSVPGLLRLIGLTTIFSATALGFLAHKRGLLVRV
Procedure: Reversibility of the compounds for MAO-B was measured using the dialysis method. […] The reaction mixture was placed in a dialysis tube (DiaEasyTM Dialyzer (800 µL) MWCO 6–8 kDa, Biovision, CA, USA) and dialyzed for 6 h. After that, the 0.3 mM of benzylamine was added into the reaction mixture for measuring enzyme activity. The relative activity to the control (without inhibitors) before and after dialysis was calculated, respectively.

AChE [2] = target: T2, AChE (Electrophorus electricus, UniProt O42275); assay: AChE inhibition assay (Ellman method, ATCI); format: biochemical; conditions: mean ± SD
T2 sequence (O42275 24-633): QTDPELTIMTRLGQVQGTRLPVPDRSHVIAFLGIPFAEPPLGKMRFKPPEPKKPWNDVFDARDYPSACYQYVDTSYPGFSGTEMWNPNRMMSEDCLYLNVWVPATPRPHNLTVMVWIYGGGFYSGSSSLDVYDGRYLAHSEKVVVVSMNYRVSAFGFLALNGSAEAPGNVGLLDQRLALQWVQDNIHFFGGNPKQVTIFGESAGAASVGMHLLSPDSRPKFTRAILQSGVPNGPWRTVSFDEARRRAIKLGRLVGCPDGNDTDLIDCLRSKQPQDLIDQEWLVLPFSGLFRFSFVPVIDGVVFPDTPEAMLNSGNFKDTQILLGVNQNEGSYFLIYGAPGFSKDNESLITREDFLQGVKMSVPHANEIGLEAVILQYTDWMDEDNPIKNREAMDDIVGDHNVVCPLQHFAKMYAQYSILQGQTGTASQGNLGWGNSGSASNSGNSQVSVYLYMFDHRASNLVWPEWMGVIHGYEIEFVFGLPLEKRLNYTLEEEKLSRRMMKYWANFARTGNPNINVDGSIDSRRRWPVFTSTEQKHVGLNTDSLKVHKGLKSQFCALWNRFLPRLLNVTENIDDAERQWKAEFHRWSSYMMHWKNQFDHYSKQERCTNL
Procedure: (§1) For measuring cholinesterase (ChE) activity, the Ellman method was employed with a slight modification. The AChE and BchE with ~0.02 U/mL were reacted with 0.5 mM ATCI and BTCI, respectively, followed by addition of 0.5 mM DTNB. […] In the inhibition assay, the enzyme and the compound were preincubated in reaction buffer for 15 min, followed by adding substrates and DTNB.

BChE = BChE (Equus caballus, UniProt P81908); assay: biochemical
Sequence of BChE (P81908 whole entry): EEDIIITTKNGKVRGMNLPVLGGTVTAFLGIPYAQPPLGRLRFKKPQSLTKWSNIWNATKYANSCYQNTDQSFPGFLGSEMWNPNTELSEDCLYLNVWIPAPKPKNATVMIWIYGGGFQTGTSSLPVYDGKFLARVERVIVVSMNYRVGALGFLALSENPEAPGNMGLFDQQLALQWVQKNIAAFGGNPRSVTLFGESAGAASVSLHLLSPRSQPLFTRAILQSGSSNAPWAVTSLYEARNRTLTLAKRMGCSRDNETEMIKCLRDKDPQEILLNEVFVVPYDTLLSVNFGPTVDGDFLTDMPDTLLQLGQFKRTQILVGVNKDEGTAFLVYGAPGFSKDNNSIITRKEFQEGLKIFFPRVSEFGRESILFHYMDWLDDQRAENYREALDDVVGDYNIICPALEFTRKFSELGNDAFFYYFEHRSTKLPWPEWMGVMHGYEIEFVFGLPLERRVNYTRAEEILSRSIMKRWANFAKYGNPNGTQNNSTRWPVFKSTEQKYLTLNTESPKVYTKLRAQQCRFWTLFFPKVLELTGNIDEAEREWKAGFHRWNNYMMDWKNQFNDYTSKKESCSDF
Procedure: as §1

AChE [3] = target: T2, AChE; assay: AChE inhibition kinetics (Lineweaver–Burk and secondary plots); format: biochemical
[4] = Cytotoxicity MTT assay on normal Vero cells; conditions: African green monkey
Procedure: The reference compound staurosporine was purchased from Sigma-Aldrich (Saint Louis, MO, USA). […] CellTiter 96® Non-Radioactive Cell Proliferation Assay (MTT) reagent was purchased from Promega (Cat# G4000). The normal Vero cell line was purchased from ATCC. Normal Vero cells were cultured with EMEM medium plus 10% FBS. In total, 100 µg/mL penicillin and 100 µg/mL streptomycin were added to the culture media.
The test compounds (100 nL) and staurosporine (25 nL) were delivered from the source plate to the wells of 384-well cell culture plates by Echo 550 Liquid Handler. […] MTT Dye Solution (8 µL) was added to each well, and the plates were incubated at 37 °C in a CO2 incubator for 6 h. After incubation, the formazan was produced in the cells. Solubilization/Stop Solution (30 µL) was added to each well and the plates were incubated for another 1 h at 37 °C in a CO2 incubator to dissolve the formazan crystals. […] The IC50 curves were plotted, and the IC50 values were calculated using the GraphPad Prism 4 program based on a sigmoidal dose–response equation.

MAO-B [5] = target: T1, MAO-B; conditions: MAO-B selectivity over MAO-A; cited from earlier work
AChE [6] = target: T2, AChE; conditions: read-out: Ki AChE; morpholine-based chalcones; cited from earlier work
MAO-A = target: T3, MAO-A (Homo sapiens, UniProt P21397); assay: MAO-A enzyme inhibition assay (kynuramine substrate); format: biochemical; conditions: mean ± SD
T3 construct: purchased Sigma Aldrich
T3 sequence (P21397 1-527): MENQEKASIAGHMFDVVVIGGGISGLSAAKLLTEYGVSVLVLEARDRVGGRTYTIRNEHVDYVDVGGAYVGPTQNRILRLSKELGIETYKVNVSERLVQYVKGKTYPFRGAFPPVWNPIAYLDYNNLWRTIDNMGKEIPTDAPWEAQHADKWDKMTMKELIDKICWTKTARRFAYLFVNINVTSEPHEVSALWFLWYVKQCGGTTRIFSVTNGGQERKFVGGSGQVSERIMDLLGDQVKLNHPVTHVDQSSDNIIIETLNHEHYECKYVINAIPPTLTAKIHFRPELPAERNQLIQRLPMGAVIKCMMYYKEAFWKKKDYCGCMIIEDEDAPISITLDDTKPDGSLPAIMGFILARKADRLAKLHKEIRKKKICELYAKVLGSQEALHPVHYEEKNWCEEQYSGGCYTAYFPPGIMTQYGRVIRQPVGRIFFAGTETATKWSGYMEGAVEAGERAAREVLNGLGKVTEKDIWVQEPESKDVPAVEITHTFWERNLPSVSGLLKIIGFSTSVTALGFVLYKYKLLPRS
Procedure: MAO assays were performed as described previously, i.e., ~0.09 U/mL of MAO-A and MAO-B were reacted with 0.06 mM kynuramine and 0.3 mM benzylamine, respectively, in 50 mM sodium phosphate (pH 7.2). […] For inhibition assay, the compounds were dissolved in DMSO and added into the reaction mixture. The final concentration of DMSO in the reaction mixture was less than 1% to avoid solvent disturbance.

[7] = read-out: Residual activity of MAO-B before dialysis

NCCNC(=O)c1ccc(Cl)cn1 [Lazabemide, reference compound]
Residual activity of MAO-B after dialysis (MAO-B [1]): 98.78% | remaining activity at 0.22 µM (MAO-B [1]; [7]): 20.5%

CN1CCN(c2ccc(C(=O)/C=C/c3cc(Br)ccc3F)cc2)CC1 [Compound 2n, (E)-3-(5-bromo-2-fluorophenyl)-1-(4-(4-methylpiperazin-1-yl)phenyl)prop-2-en-1-one]
IC50 (AChE [2]): 4.32 ± 0.39 µM | Residual Activities at 10 μM (%) BChE (BChE; 10 μM compound, mean ± SD): 43.21 ± 2.88% | Inhibition pattern for AChE (AChE [3]): mixed type | IC50 at 72 h [4]: 62 µM

C#CCN(C)Cc1ccccc1 [Pargyline, reference compound]
Residual activity of MAO-B after dialysis (MAO-B [1]): 24.88%

O=C(/C=C/c1ccc(F)cc1)c1ccc(N2CCNCC2)cc1 [PC10]
SI (MAO) (MAO-B [5]): 48.3

O=C(/C=C/c1ccc(Br)cc1)c1ccc(N2CCOCC2)cc1 [MO9]
Ki (AChE [6]): 7.04 µM

O=C(/C=C/c1ccc(C(F)(F)F)cc1)c1ccc(N2CCNCC2)cc1 [PC11]
SI (MAO) (MAO-B [5]): 49.2

CN1CCN(c2ccc(C(=O)/C=C/c3ccc(F)c(C(F)(F)F)c3)cc2)CC1 [Compound 2k, (E)-3-(4-fluoro-3-(trifluoromethyl)phenyl)-1-(4-(4-methylpiperazin-1-yl)phenyl)prop-2-en-1-one]
remaining activity at 10 µM (MAO-A; 10 μM compound, read-out: Residual Activities at 10 μM (%) MAO-A): 96.4 ± 3.03% | IC50 (MAO-A): > 40 µM | remaining activity at 10 µM (AChE [2]; 10 μM compound, read-out: Residual Activities at 10 μM (%) AChE): 46.9 ± 2.58% | remaining activity at 10 µM (BChE; read-out: Residual Activities at 10 μM (%) BChE): 61.8 ± 5.54% | Inhibition pattern for AChE (AChE [3]): mixed type | Residual activity of MAO-B after dialysis (MAO-B [1]): 80.26% | Reversibility of MAO-B inhibition (MAO-B [1]; dialysis method): reversible | remaining activity at 1.16 µM (MAO-B [1]; [7]): 14.6% | IC50 at 72 h [4]: 19.9 µM

CN(C)c1ccc(/C=C/C(=O)c2ccc(N3CCOCC3)cc2)cc1 [MO5]
Ki (AChE [6]): 2.52 µM
